Results published in US8754115B2, “Fungicidal pyrazoles” (E I du Pont de Nemours and Company, priority 2010, dated 2014).
Marks after values point to notes of the source that are not given here.

Legend:
Type in all cases: in vivo
[1] = tested on: Septoria tritici; assay: Test D: preventive spray on wheat seedlings, visual disease rating (wheat leaf blotch)
How it was run: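 Protection was scored visually on a 0–100% disease-control scale versus controls, 19 days after plants were moved to 20 °C following 48 h of 24 °C saturated humidity. Spore inoculation with S. tritici took place one day after a preventive run-off spray, usually at 200 ppm (800 g/ha) and at 40 ppm where asterisked.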

[2] = tested on: Septoria nodorum; assay: Test C: preventive spray on wheat seedlings, visual disease rating (Septoria glume blotch)
How it was run: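 Wheat seedlings were sprayed to run-off with 200 ppm suspension (40 ppm where marked; 200 ppm ≈ 800 g/ha) in acetone/water with 250 ppm Trem 014, then inoculated next day with Septoria nodorum spores. Incubation was 48 h saturated at 24 °C, then 6 days at 20 °C; visual rating 0–100% disease control versus controls.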

[3] = tested on: Botrytis cinerea; assay: Test A: preventive spray on tomato seedlings, visual disease rating (tomato Botrytis)
How it was run: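 Preventive test: Botrytis cinerea spores applied one day after run-off spraying at 200 ppm (≈800 g/ha), or 40 ppm where asterisked. Incubation 48 h at 20 °C in saturated air, then 3 days at 24 °C; disease scored visually from 0 (no control) to 100 (complete control) versus untreated.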

[4] = tested on: Puccinia recondite f. sp. tritici; assay: Test E2: preventive spray on wheat seedlings, visual disease rating (wheat leaf rust)
How it was run: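 Wheat seedlings were inoculated with leaf rust spores one day after a run-off spray of compound at 200 ppm (asterisk: 40 ppm) in 50/50 acetone/water with 250 ppm Trem 014. Incubation: 24 h saturated humidity, 20 °C; then 7 days growth chamber, 20 °C. Disease control scored visually, 0–100% relative to controls.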

[5] = tested on: Blumeria graminis f. sp. tritici; assay: Test F: preventive spray on wheat seedlings, visual disease rating (wheat powdery mildew)
How it was run: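 Visual ratings (0–100% control relative to controls) taken 8 days after spore-dust inoculation at 20° C. Inoculation followed one day after a protective run-off spray of 200 ppm suspension, equal to 800 g/ha, or 40 ppm where flagged, made in acetone/water with 250 ppm surfactant.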

[6] = tested on: Puccinia recondite f. sp. tritici; assay: Test E1: curative spray on wheat seedlings after inoculation, visual disease rating (wheat leaf rust)
How it was run: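 Seedlings inoculated with rust spores, held 24 h in saturated atmosphere at 20 °C, then 2 days at 20 °C before curative spray to run-off with test suspension (200 ppm ≈ 800 g/ha, or 40 ppm where marked) in acetone/water with surfactant. Visual disease control rating (0–100) after 6 further days at 20 °C.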

[7] = tested on: Alternaria solani; assay: Test B: preventive spray on tomato seedlings, visual disease rating (tomato early blight)
How it was run: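 Compounds were suspended at 200 ppm (asterisked values at 40 ppm) in acetone/water with surfactant and sprayed to run-off on tomato seedlings, 200 ppm being equivalent to 800 g/ha. A. solani spores were inoculated the next day, with 48 h at 27 °C in saturated air, then 5 days at 20 °C. Disease control was rated visually, 0–100% relative to controls.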

[8] = no asterisk: standard test suspension, not 40 ppm
[9] = no asterisk: standard test suspension, not 40 ppm, 100 = 100% disease control, 0 = none
[10] = asterisk: 40 ppm test suspension

| Compound | Test D rating (% disease control) [1, 8] [%] | Test C rating (% disease control) [2, 8] [%] | Test A rating (% disease control) [3, 9] [%] | Test E2 rating (% disease control) [4, 8] [%] | Test F rating (% disease control) [5, 8] [%] | Test E1 rating (% disease control) [6, 8] [%] | Test B rating (% disease control) [7, 8] [%] | Test D rating (% disease control) [1, 10] | Test C rating (% disease control) [2, 10] | Test A rating (% disease control) [3, 10] | Test E2 rating (% disease control) [4, 10] | Test F rating (% disease control) [5, 10] | Test E1 rating (% disease control) [6, 10] | Test B rating (% disease control) [7, 10] |
| --- | --- | --- | --- | --- | --- | --- | --- | --- | --- | --- | --- | --- | --- | --- |
| Cc1nn(C)c(-c2c(Cl)cccc2Cl)c1C(O)c1ccc(F)cc1Cl (centres unmarked) [compound 69] | 100 | 96 | 99 | 99 | 97 | 0 | 100 |  |  |  |  |  |  |  |
| Cc1nn(C)c(-c2ccccc2Br)c1C(=O)c1ccc(F)cc1Cl [compound 78] | 0 | 40 | 0 | 79 | 99 | 0 | 31 |  |  |  |  |  |  |  |
| Cc1nn(C)c(-c2ccc(F)cc2Br)c1C(O)c1c(F)cc(F)cc1F (centres unmarked) [compound 82] | 99 | 92 | 99 | 100 | 100 | 27 | 100 |  |  |  |  |  |  |  |
| Cc1nn(C)c(-c2ccc(F)cc2Br)c1C(=O)c1ccc(F)cc1Cl [compound 83] |  |  |  |  |  |  |  | 25* % | 0* % | 55* % | 74* % | 99* % | 0* % | 0* % |
| Cc1nn(C)c(-c2c(F)cccc2Cl)c1C(O)c1c(Cl)cccc1Cl (centres unmarked) [compound 85] | 100 | 0 | 97 | 100 | 50 | 9 | 84 |  |  |  |  |  |  |  |
| (2,4-difluorophenyl)-[5-(2,4-difluorophenyl)-1,3-dimethyl-1H-pyrazol-4-yl]methanone [Compound 32] | 100 | 0 | 0 | 9 | 0 | 0 | 96 |  |  |  |  |  |  |  |
| α-(2,4-difluorophenyl)-5-(2,4-difluorophenyl)-1,3-dimethyl-1H-pyrazole-4-methanol [Compound 72] | 99 | 0 | 100 | 40 | 99 | 0 | 0 |  |  |  |  |  |  |  |
| α-(2,4-difluorophenyl)-5-(2,6-difluorophenyl)-1,3-dimethyl-1H-pyrazole-4-methanol [Compound 14] | 100 | 0 | 98 | 98 | 97 | 75 | 0 |  |  |  |  |  |  |  |
